According to patent US20010034322A1, “Taxol-like protein (TALP) and process for preparing the same” (priority 1996, published 2001):

Experiments:
Type in all cases: biochemical
tubulin [1] = experiment: tubulin polymerization monitored by turbidity (absorbance at 350 nm); settings: 20 μM taxol; control 2 mM GTP
Method: All of the purification steps were carried out under 4° C., and TALP activity was determined by the conventional tubulin polymerization which was monitored by turbidity(see: Gaskin, F. et al., 1974, J. Mol. Biol., 89:737-758): Tubulin prepared according to the method of Hamel et al. or Asnes et al.(see: Hamel E. et al., 1981, Arch. Biochem. Biophys., 209:29-40; Asnes, C. F. and Wilson, L., 1979, Anal. Biochem., 98:64-73) was added to 0.1M MES(2-[N-morpholino]ethane sulfonic acid) buffer(0.1M MES containing 1 mM EGTA and 1 mM MgCl2, pH 6.8) to a final concentration of 1 mg/ml, and TALP containing solution was added to a final reaction volume of 250 μl. The reaction mixture was incubated at 37° C. for 30 minutes, and the change in absorbance at 350 nm was monitored with a Gilford Model 2600 spectrophotometer(Gilford, USA).
Effects of GTP, taxol and TALP on tubulin polymerization were examined in the same manner as described in Example 1.
When 0.5 μM of TALP was added to the reaction mixture, tubulin polymerization occurred twice or more as high as one without TALP(see: FIG. 4).

[2] = tested on: tubulin isolated from bovine brain; experiment: coprecipitation of tubulin and TALP (centrifugation, SDS-PAGE of supernatants and pellets); settings: tubulin 0.4 mg/ml, 37° C., 30 minutes
Method: To investigate whether TALP promotes microtubule assembly in the same manner as taxol, tubulin isolated from bovine brain was added to 0.1M MES buffer(pH 6.8) to a concentration of 0.4 mg/ml. Then, 2 mM GTP, 10 μM taxol or 4 μM TALP was added to the reaction mixture, and polymerization of microtubules were carried out at 37° C. for 30 minutes. The reaction mixtures were centrifuged for 20 minutes, and the supernatants and the pellets thus obtained were analyzed by 12% SDS-PAGE(see: FIG. 7(A)).
Also, tubulin polymerization was investigated with the variation of TALP concentration. […] In FIGS. 7(A) and 7(B), S and P designate supernatant and pellet, respectively.

tubulin [3] = experiment: effect of Ca2+ on microtubules assembled by GTP, taxol or TALP; settings: 4 mM CaCl2
Method: To investigate effect of Ca^2+ on tubulin polymerization, tubulin was added to 0.1M MES buffer(pH 6.8) free of EGTA, and GTP, taxol or TALP was added, and polymerization of microtubules were carried out at 37° C. for 15 minutes. Then, 4 mM CaCl2 was added to the reaction mixture, and depolymerization of microtubules assembled was measured, with the addition of GTP, taxol or TALP(see: FIG. 5).

tubulin [4] = experiment: electron microscopic analysis of microtubules; settings: tubulin 1 mg/ml, 37° C., 30 minutes
Method: When tubulin polymerization was monitored by measuring the absorbance as in Example 1, increase in the absorbance may occur not only by microtubule assembly but also by the aggregation of tubulins. Thus, in order to confirm that the turbidity change is caused by microtubule assembly, the morphology of the polymers was examined with electron microscopy. Tubulin was added to 0.1M MES buffer to a concentration of 1 mg/ml, and GTP, taxol or TALP was added to a final reaction volume of 250 μl. The reaction mixture was incubated at 37° C. for 30 minutes, and the absorbance change at 350 nm was monitored. At this time, the reaction solutions showing increase in the absorbance were fixed and applied to a carbon-coated grids, and dried. Grids were then stained with 1% uranyl acetate for 5 minutes, washed with distilled water, and dried. And then, they were examined with electron microscope(Hitachi H-600, Japan) at an accelerated voltage of 75 kv.

tubulin [5] = experiment: effect of cold temperature (4° C.) on microtubules assembled by GTP, taxol or TALP; settings: chilled to 4° C.
Method: To investigate effect of cold temperature on tubulin polymerization, tubulin was added to 0.1M MES buffer(pH 6.8). Then GTP, taxol or TALP was added to the reaction mixture, and polymerization of microtubules were carried out at 37° C. for 15 minutes. Then, the reaction solution was chilled to a temperature of 4° C., and depolymerization of microtubules assembled was measured, with the addition of GTP, taxol or TALP(see: FIG. 6).

| SMILES | tubulin polymerization, times as high as the control (tubulin [1]) | tubulins polymerized ([2]; 10 μM taxol) | microtubules depolymerized by Ca2+ (tubulin [3]; assembled by 10 μM taxol) | morphology of the polymers by electron microscopy (tubulin [4]) | microtubules depolymerized at 4° C. (tubulin [5]; assembled by 10 μM taxol) | tubulins polymerized ([2]; 2 mM GTP) | microtubules depolymerized by Ca2+ (tubulin [3]; assembled by 2 mM GTP) | microtubules depolymerized at 4° C. (tubulin [5]; assembled by 2 mM GTP) |
| --- | --- | --- | --- | --- | --- | --- | --- | --- |
| CC(=O)O[C@H]1C(=O)[C@@]2(C)[C@H]([C@H](OC(=O)c3ccccc3)[C@]3(O)C[C@H](OC(=O)[C@H](O)[C@@H](NC(=O)c4ccccc4)c4ccccc4)C(C)=C1C3(C)C)[C@]1(OC(C)=O)CO[C@@H]1C[C@@H]2O [taxol] | 2.5 times | about 20% | 30% | typical microtubules were assembled | 25% |  |  |  |
| Nc1nc2c(ncn2[C@@H]2O[C@H](COP(=O)(O)OP(=O)(O)OP(=O)(O)O)[C@@H](O)[C@H]2O)c(=O)[nH]1 [GTP] |  |  |  | typical microtubules were assembled |  | most of tubulins were not polymerized | most | most |
